Molecular target: Gastrin/cholecystokinin type B receptor (Cavia porcellus)
Experiment: Inhibition of [3H]pCCK-8 binding to Guinea pig cortex membrane Cholecystokinin type B receptor

Ki: 51 nM
SMILES: C[C@]1(Cc2c[nH]c3ccccc23)NC(=O)CCCCSSCC[C@@H](C(=O)N[C@@H](CC(=O)O)C(=O)N[C@@H](Cc2ccccc2)C(N)=O)NC1=O [N-(1-Carbamoyl-2-phenyl-ethyl)-3-{[(5R,8R)-8-(1H-indol-3-ylmethyl)-8-methyl-7,10-dioxo-1,2-dithia-6,9-diaza-cyclotetradecane-5-carbonyl]-amino}-succinamic acid]
